Drawing on ChEMBL document CHEMBL1123292, “Synthesis and antimitogenic activities of four analogues of cyclosporin A modified in the 1-position” (J Med Chem, 1986), this text covers IC50 for 4 compounds.

Each structure is given as a SMILES string. pIC50: −log10 of the molar value.

A short description of experiment [1]: inhibitory concentration against Con A stimulated thymocytes. It counts as functional.
Experiment [2] in a line: Inhibitory concentration against Con A stimulated thymocytes. It counts as functional.

The compound `CC[C@@H]1NC(=O)[C@H]([C@@H](C)O)N(C)C(=O)[C@H](C(C)C)N(C)C(=O)[C@H](CC(C)C)N(C)C(=O)[C@H](CC(C)C)N(C)C(=O)[C@@H](C)NC(=O)[C@H](C)NC(=O)[C@H](CC(C)C)N(C)C(=O)[C@H](C(C)C)NC(=O)[C@H](CC(C)C)N(C)C(=O)CN(C)C1=O` gave a negative logarithm of the IC50 (pIC50) in experiment [1] of 5.10.
In experiment [2], `CC[C@@H]1NC(=O)[C@H](CC)N(C)C(=O)[C@H](C(C)C)N(C)C(=O)[C@H](CC(C)C)N(C)C(=O)[C@H](CC(C)C)N(C)C(=O)[C@@H](C)NC(=O)[C@H](C)NC(=O)[C@H](CC(C)C)N(C)C(=O)[C@H](C(C)C)NC(=O)[C@H](CC(C)C)N(C)C(=O)CN(C)C1=O` gave a pIC50 of 4.82.
Regarding `CCCCC(C)[C@@H](O)[C@H]1C(=O)N[C@@H](CC)C(=O)N(C)CC(=O)N(C)[C@@H](CC(C)C)C(=O)N[C@@H](C(C)C)C(=O)N(C)[C@@H](CC(C)C)C(=O)N[C@@H](C)C(=O)N[C@H](C)C(=O)N(C)[C@@H](CC(C)C)C(=O)N(C)[C@@H](CC(C)C)C(=O)N(C)[C@@H](C(C)C)C(=O)N1C` (some centres undefined), the pIC50 in experiment [2] is 8.00.
Same read-out and setting: the value for `CC[C@@H]1NC(=O)[C@H]([C@H](O)C(C)C)N(C)C(=O)[C@H](C(C)C)N(C)C(=O)[C@H](CC(C)C)N(C)C(=O)[C@H](CC(C)C)N(C)C(=O)[C@@H](C)NC(=O)[C@H](C)NC(=O)[C@H](CC(C)C)N(C)C(=O)[C@H](C(C)C)NC(=O)[C@H](CC(C)C)N(C)C(=O)CN(C)C1=O` was 6.22.
